Reference: publication PMC6271077, “Synthesis, Anticancer and Antibacterial Activity of Salinomycin N-Benzyl Amides” (Molecules, 2014)

What was measured:
[1] = tested on: standard strains of Gram-positive bacteria; assay: MIC microdilution, standard Gram-positive strains overall (range given); format: cell-based; details: standard S. aureus and S. epidermidis strains
[2] = tested on: MRSA; assay: MIC microdilution, MRSA strains overall (range given); format: cell-based, Staphylococcus aureus; details: hospital MRSA strains
[3] = tested on: HL-60, HL-60/vinc, LoVo, LoVo/dx; assay: Antiproliferative assays, all four cancer cell lines (range given); format: cell-based; details: Homo sapiens, read-out: IC50 (range over the cancer cell lines)
Description: Four human cancer cell lines and one normal cell line were used to evaluate anticancer activity of SAL and its N-benzyl amides: human acute promyelocytic leukemia (HL-60) and its vincristine resistant subline (HL-60/vinc), human colon adenocarcinoma cell lines sensitive (LoVo) and resistant to doxorubicin (LoVo/dx) as well as also normal murine embryonic fibroblast cell line (BALB/3T3). The BALB/3T3 cell line was purchased from the American Type Culture Collection (ATCC Rockville, MD, USA), HL-60 cell line from European Type Culture Collection by courtesy of Professor Spik and Dr Mazurier (Laboratory of Biological Chemistry USTL, Lille, France) and HL-60/vinc, LoVo and LoVo/dx by courtesy of Prof. E. Borowski (Technical University of Gdańsk, Gdańsk, Poland). All the cell lines are maintained in the Institute of Immunology and Experimental Therapy (IIET), Wrocław, Poland.
Human leukemia cells were cultured in ISCOVE medium (IIET, Wroclaw, Polond) containing 10% fetal bovine serum and 2 mM L-glutamine (Sigma Aldrich) and 1 µg/100 mL […] for HL-60/vinc (Sigma Aldrich). Human colon adenocarcinoma cell lines were cultured in mixture of OptiMEM and RPMI 1640 (1:1) medium (IIET) supplemented with 5% fetal bovine serum (Thermo Fisher Scientific, Waltham, MA, USA), 2 mM L-glutamine, 1 mM sodium pyruvate (Sigma Aldrich) and 10 µg/100 mL doxorubicin for LoVo/dx (Sigma Aldrich). Murine embryonic fibroblast cells were cultured in Dulbecco medium (Gibco, Darmstadt, Germany) supplemented with 10% fetal bovine serum (Thermo Fisher Scientific) and 2 mM L-glutamine (Sigma Aldrich). All culture media contained antibiotics: 100 U/mL penicillin (Sigma Aldrich) and 100 µg/mL streptomycin (Polfa-Tarchomin, City, Poland). All cell lines were cultured during entire experiment in humid atmosphere at 37 °C and 5% CO2.
Twenty four hours before adding the tested compounds all cell lines were seeded in 96-well plates (Sarstedt, Nümbrecht, Germany) in appropriate media with 10^4 cells per well. All cell lines were exposed to each tested agent at four different concentrations from the range 100 to 0.1 µg/mL for 72 h. The cells were also exposed to the reference drugs: cisplatin (Accord, London, UK) and doxorubicin hydrochloride (Fluka, St. Louis, MO, USA). Additionally, all cell lines were exposed to DMSO (the solvent used for tested compounds, Sigma Aldrich) at the concentrations corresponding to those in the tested agent dilutions. For adherent cells sulphorodamine B assay was performed and MTT assay for leukemia cells.
After 72 h of incubation with tested compounds the cells were fixed in situ by gently adding of 50 µL per well of cold 50% trichloroacetic acid TCA (Avantor Performance Materials, City, Poland) and were incubated at 4 °C for 1 h. Then the wells were washed four times with water and air-dried. Next, 50 µL of 0.2% solution of sulphorodamine B (Sigma Aldrich) in 1% acetic acid (Avantor Performance Materials) were added to each well and plates were incubated at room temperature for 0.5 h. After incubation time, unbound dye was removed by washing plates four times with 1% acetic acid, whereas the stain bound to cells was solubilized with 150 µL of 10 mM Tris base (Sigma Aldrich). Absorbance of each solution was read at Synergy H4 photometer (BioTek Instruments, Winooski, VT, USA) at 540 nm wavelength.
Proliferation inhibition of leukemia cells by tested compounds was measured by means of MTT assay. […]

[4] = tested on: breast cancer stem cells (CSCs); parameters: method as in PMID 19682730; details: versus Taxol; cited from earlier work

Row | SMILES | MIC (range over standard strains of Gram-positive bacteria) [1] [µg/mL] | MIC (range over MRSA strains) [2] [µg/mL] | IC50 [3] [nM] | fold more effective than Taxol [4] [fold]
1 | CC[C@H](C(=O)NCc1ccc(F)cc1)C1CC[C@H](C)C([C@@H](C)[C@H](O)[C@H](C)C(=O)[C@H](CC)C2O[C@]3(C=C[C@@H](O)C4(CC[C@@](C)(C5CC[C@](O)(CC)[C@H](C)O5)O4)O3)[C@H](C)C[C@@H]2C)O1 (some centres unmarked) [F-p] | 16 to 32 | 16 to 64 | – | –
2 | CC[C@H](C(=O)NCc1ccc([N+](=O)[O-])cc1)C1CC[C@H](C)C([C@@H](C)[C@H](O)[C@H](C)C(=O)[C@H](CC)C2O[C@]3(C=C[C@@H](O)C4(CC[C@@](C)(C5CC[C@](O)(CC)[C@H](C)O5)O4)O3)[C@H](C)C[C@@H]2C)O1 (some centres unmarked) [NO2-p] | 128 | – | – | –
3 | CC[C@@H](C(=O)[C@@H](C)[C@@H](O)[C@H](C)[C@@H]1O[C@@H]([C@@H](CC)C(=O)O)CC[C@@H]1C)[C@H]1O[C@]2(C=C[C@@H](O)[C@]3(CC[C@@](C)([C@H]4CC[C@](O)(CC)[C@H](C)O4)O3)O2)[C@H](C)C[C@@H]1C [SAL, Salinomycin] | – | – | 330 to 2330 | ~100
